target: T1, NLRP3 (Homo sapiens, UniProt Q96P20); experiment: THP-1 cell assay (LPS priming, nigericin), IL1β release by HTRF; called pyroptosis assay, THP IC50; format: cell-based; conditions: NLRP3 inhibitory activity; THP-1 cells, 1.0 ug/mL LPS, compound 3 hrs, nigericin 5 uM 1 hr, IL1β in supernatant
T1 construct: Seed THP-1 cells (5.56*10^5 cells/mL) containing 1.0 ug/mL LPS; endogenous in cells; host or cells: THP-1 cells
Procedure: The following method was used for compound screening. • 1. Seed THP-1 cells (5.56*10^5 cells/mL) containing 1.0 ug/mL LPS (SIGMA, L6529) in 45 uL RPMI 1640 medium (without FBS) into 384-well plate (Thermo Scientific, 164688). • 2. Add 5 uL compound (10 doses starting from 5 uM, 1:3 dilution) or vehicle (0.05% DMSO in medium) to the appropriate wells. • 3. Centrifuge the plates at 1000 rpm for 2 mins and incubate for 3 hrs at 37° C., 5% CO2. • 4. Add 5 uL nigericin (MEC, HY-100381) (final conc. 5 uM) to sample wells and positive control wells; add 5 uL RPMI 1640 medium to negative control wells. • 5. Centrifuge plates at 1000 rpm for 2 mins and incubate for 1 hr at 37° C., 5% CO2. • 6. At the end of the incubation period, centrifuge plates at 1000 rpm for 6 mins and transfer 8 uL supernatant into 384-well assay plates (PerkinElmer, 6008280). • 7. Add 8 ul RPMI 1640 medium into each well and spin down for 10 secs. • 8. Prepare the standard solutions and pre-mixed IL1β antibody solution of Human […] kits (PerkinElmer, 62HIL1BPEH) according to the instruction. • 9. Add 16 uL standard solutions into clear wells of 384-well assay plates. • 10. Add 4 uL pre-mixed IL1β antibody solution to all wells including sample wells, positive control wells, negative control wells and standard solutions wells. • 11. Seal the plates, spin down for 10 secs, incubation for overnight at RT and read on an HTRF® compatible reader (BMG LABTECH, PHERAstar FS). • 12. The concentrations of IL1β for treated wells are calculated by the standard curve. • 13. The IC50 data is fitted to a non-liner regression equation (log inhibitor vs. response—Variable slope four parameters)).

T1 sequence (Q96P20 whole entry): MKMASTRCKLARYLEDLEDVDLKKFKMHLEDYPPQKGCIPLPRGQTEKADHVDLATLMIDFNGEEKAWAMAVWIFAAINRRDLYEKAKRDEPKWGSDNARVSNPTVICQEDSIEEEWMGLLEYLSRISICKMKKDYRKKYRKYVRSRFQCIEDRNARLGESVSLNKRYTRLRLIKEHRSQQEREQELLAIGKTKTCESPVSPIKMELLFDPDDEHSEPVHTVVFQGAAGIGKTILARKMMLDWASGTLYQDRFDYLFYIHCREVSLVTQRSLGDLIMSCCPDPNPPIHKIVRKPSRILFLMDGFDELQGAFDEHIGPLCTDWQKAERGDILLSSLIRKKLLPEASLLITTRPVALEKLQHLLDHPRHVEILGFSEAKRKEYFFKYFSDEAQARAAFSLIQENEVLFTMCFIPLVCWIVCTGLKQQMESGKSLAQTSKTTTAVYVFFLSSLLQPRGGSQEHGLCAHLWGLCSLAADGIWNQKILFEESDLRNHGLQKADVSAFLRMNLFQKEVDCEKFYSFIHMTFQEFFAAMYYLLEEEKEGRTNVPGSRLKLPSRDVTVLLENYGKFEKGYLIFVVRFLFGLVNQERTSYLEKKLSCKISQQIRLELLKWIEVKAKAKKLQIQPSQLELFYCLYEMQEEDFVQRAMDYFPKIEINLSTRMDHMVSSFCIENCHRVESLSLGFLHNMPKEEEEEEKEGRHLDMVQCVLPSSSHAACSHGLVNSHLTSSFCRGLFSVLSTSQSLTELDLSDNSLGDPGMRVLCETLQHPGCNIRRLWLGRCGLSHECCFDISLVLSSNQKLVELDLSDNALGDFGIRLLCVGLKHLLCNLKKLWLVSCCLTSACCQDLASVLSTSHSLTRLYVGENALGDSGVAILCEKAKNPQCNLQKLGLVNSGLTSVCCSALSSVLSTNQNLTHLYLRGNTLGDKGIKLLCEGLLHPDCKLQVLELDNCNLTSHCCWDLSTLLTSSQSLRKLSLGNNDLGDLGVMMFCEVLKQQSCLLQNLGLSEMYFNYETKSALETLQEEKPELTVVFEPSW

| SMILES | IC50 [µM] |
| --- | --- |
| CC(C)(O)c1csc(S(=O)(=O)NC(=O)Nc2c(-c3ccn4cncc4c3)ccc3c2CCC3)c1 [Example 54, 4-(2-hydroxypropan-2-yl)-N-((5-(imidazo[1,5-a]pyridin-7-yl)-2,3-dihydro-1H-inden-4-yl)carbamoyl)thiophene-2-sulfonamide] | ≤ 0.03 |
| CN1CCC(n2ccc3c(-c4ccc5c(c4NC(=O)NS(=O)(=O)c4cc(C(C)(C)O)cs4)CCC5)ccnc32)CC1 [Example 55, 4-(2-hydroxypropan-2-yl)-N-((5-(1-(1-methylpiperidin-4-yl)-1H-pyrrolo[2,3-b]pyridin-4-yl)-2,3-dihydro-1H-inden-4-yl)carbamoyl)thiophene-2-sulfonamide] | 0.3 to 1 |
| CC(C)(O)c1csc(S(=O)(=O)NC(=O)Nc2c(-c3ccnc4c3ccn4C3CCOCC3)ccc3c2CCC3)c1 [Example 56, 4-(2-hydroxypropan-2-yl)-N-((5-(1-(tetrahydro-2H-pyran-4-yl)-1H-pyrrolo[2,3-b]pyridin-4-yl)-2,3-dihydro-1H-inden-4-yl)carbamoyl)thiophene-2-sulfonamide] | 0.03 to 0.3 |
| CN1CCC(n2ccc3c(-c4ccc5c(c4NC(=O)NS(=O)(=O)c4cc(C(C)(C)O)cs4)CCC5)ccnc32)C1 (centres unmarked) [Example 57, 4-(2-hydroxypropan-2-yl)-N-((5-(1-(1-methylpyrrolidin-3-yl)-1H-pyrrolo[2,3-b]pyridin-4-yl)-2,3-dihydro-1H-inden-4-yl)carbamoyl)thiophene-2-sulfonamide] | 0.3 to 1 |
| CC(C)(O)c1csc(S(=O)(=O)NC(=O)Nc2c(-c3ccnc4c3ccn4C3CCOC3)ccc3c2CCC3)c1 (centres unmarked) [Example 58, 4-(2-hydroxypropan-2-yl)-N-((5-(1-(tetrahydrofuran-3-yl)-1H-pyrrolo[2,3-b]pyridin-4-yl)-2,3-dihydro-1H-inden-4-yl)carbamoyl)thiophene-2-sulfonamide] | 0.03 to 0.3 |
| CC(C)(O)c1csc(S(=O)(=O)NC(=O)Nc2c(-c3ccnc4c3ccn4C3COC3)ccc3c2CCC3)c1 [Example 59, 4-(2-hydroxypropan-2-yl)-N-((5-(1-(oxetan-3-yl)-1H-pyrrolo[2,3-b]pyridin-4-yl)-2,3-dihydro-1H-inden-4-yl)carbamoyl)thiophene-2-sulfonamide] | 0.03 to 0.3 |
| CC(C)(O)c1csc(S(=O)(=O)NC(=O)Nc2c(-c3ccn4nccc4c3)ccc3c2CCC3)c1 [Example 60, 4-(2-hydroxypropan-2-yl)-N-((5-(pyrazolo[1,5-a]pyridin-5-yl)-2,3-dihydro-1H-inden-4-yl)carbamoyl)thiophene-2-sulfonamide] | ≤ 0.03 |
| CC(C)(O)c1csc(S(=O)(=O)NC(=O)Nc2c(-c3ccc4nncn4c3)ccc3c2CCC3)c1 [Example 61] | 0.3 to 1 |
| CC(C)(O)c1csc(S(=O)(=O)NC(=O)Nc2c(-c3ccn4nncc4c3)ccc3c2CCC3)c1 [Example 62, N-((5-([1,2,3]triazolo[1,5-a]pyridin-5-yl)-2,3-dihydro-1H-inden-4-yl)carbamoyl)-4-(2-hydroxypropan-2-yl)thiophene-2-sulfonamide] | 0.03 to 0.3 |
| CC(C)(O)c1csc(S(=O)(=O)NC(=O)Nc2c(-c3ccn4cnnc4c3)ccc3c2CCC3)c1 [Example 63, N-((5-([1,2,4]triazolo[4,3-a]pyridin-7-yl)-2,3-dihydro-1H-inden-4-yl)carbamoyl)-4-(2-hydroxypropan-2-yl)thiophene-2-sulfonamide] | ≤ 0.03 |
| CC(C)(O)c1csc(S(=O)(=O)NC(=O)Nc2c(-c3cnc4ccnn4c3)ccc3c2CCC3)c1 [Example 64, 4-(2-hydroxypropan-2-yl)-N-((5-(pyrazolo[1,5-a]pyrimidin-6-yl)-2,3-dihydro-1H-inden-4-yl)carbamoyl)thiophene-2-sulfonamide] | 1 to 2 |
| CC(C)(O)c1csc(S(=O)(=O)NC(=O)Nc2c(-c3ccc4nccn4c3)ccc3c2OCO3)c1 [Example 65, 4-(2-hydroxypropan-2-yl)-N-((5-(imidazo[1,2-a]pyridin-6-yl)benzo[d][1,3]dioxol-4-yl)carbamoyl)thiophene-2-sulfonamide] | 0.03 to 0.3 |
| CC(C)(O)c1csc(S(=O)(=O)NC(=O)Nc2c(-c3ccn4ccnc4c3)ccc3c2OCO3)c1 [Example 66, 4-(2-hydroxypropan-2-yl)-N-((5-(imidazo[1,2-a]pyridin-7-yl)benzo[d][1,3]dioxol-4-yl)carbamoyl)thiophene-2-sulfonamide] | ≤ 0.03 |
| CC(C)(O)c1csc(S(=O)(=O)NC(=O)Nc2c(-c3ccc4ccnn4c3)ccc3c2CCC3)c1 [Example 68, 4-(2-hydroxypropan-2-yl)-N-((5-(pyrazolo[1,5-a]pyridin-6-yl)-2,3-dihydro-1H-inden-4-yl)carbamoyl)thiophene-2-sulfonamide] | ≤ 0.03 |
| Cc1cc2c(c(NC(=O)NS(=O)(=O)c3cc(C(C)(C)O)cs3)c1-c1ccn3cncc3c1)CCC2 [Example 69, 4-(2-hydroxypropan-2-yl)-N-((5-(imidazo[1,5-a]pyridin-7-yl)-6-methyl-2,3-dihydro-1H-inden-4-yl)carbamoyl)thiophene-2-sulfonamide] | ≤ 0.03 |
| Cc1cc2c(c(NC(=O)NS(=O)(=O)c3cc(C(C)(C)O)cs3)c1-c1ccn3nccc3c1)CCC2 [Example 70, 4-(2-hydroxypropan-2-yl)-N-((6-methyl-5-(pyrazolo[1,5-a]pyridin-5-yl)-2,3-dihydro-1H-inden-4-yl)carbamoyl)thiophene-2-sulfonamide] | ≤ 0.03 |
| CC(C)(O)c1csc(S(=O)(=O)NC(=O)Nc2c3c(cc(Cl)c2-c2ccn4cncc4c2)CCC3)c1 [Example 71, N-((6-chloro-5-(imidazo[1,5-a]pyridin-7-yl)-2,3-dihydro-1H-inden-4-yl)carbamoyl)-4-(2-hydroxypropan-2-yl)thiophene-2-sulfonamide] | ≤ 0.03 |
| Cc1c(-c2ccc3c(c2NC(=O)NS(=O)(=O)c2cc(C(C)(C)O)cs2)CCC3)ccn2ccnc12 [Example 72, 4-(2-hydroxypropan-2-yl)-N-((5-(8-methylimidazo[1,2-a]pyridin-7-yl)-2,3-dihydro-1H-inden-4-yl)carbamoyl)thiophene-2-sulfonamide] | 0.03 to 0.3 |
| Cc1c(-c2ccc3c(c2NC(=O)NS(=O)(=O)c2cc(C(C)(C)O)cs2)CCC3)ccn2cncc12 [Example 73, 4-(2-hydroxypropan-2-yl)-N-((5-(8-methylimidazo[1,5-a]pyridin-7-yl)-2,3-dihydro-1H-inden-4-yl)carbamoyl)thiophene-2-sulfonamide] | 0.03 to 0.3 |
| Cc1cc2cc(-c3ccc4c(c3NC(=O)NS(=O)(=O)c3cc(C(C)(C)O)cs3)CCC4)ccn2n1 [Example 74, 4-(2-hydroxypropan-2-yl)-N-((5-(2-methylpyrazolo[1,5-a]pyridin-5-yl)-2,3-dihydro-1H-inden-4-yl)carbamoyl)thiophene-2-sulfonamide] | ≤ 0.03 |
| Cc1cc2c(c(NC(=O)NS(=O)(=O)C3CC(OC4CC4)C3)c1-c1ccn3nccc3c1)CCC2 (centres unmarked) [Example 75, 3-cyclopropoxy-N-((6-methyl-5-(pyrazolo[1,5-a]pyridin-5-yl)-2,3-dihydro-1H-inden-4-yl)carbamoyl)cyclobutane-1-sulfonamide] | 0.03 to 0.3 |
| Cc1cc2c(c(NC(=O)NS(=O)(=O)c3ccn(C4CC(O)C4)n3)c1-c1ccn3nccc3c1)CCC2 (centres unmarked) [Example 76, 1-(3-hydroxycyclobutyl)-N-((6-methyl-5-(pyrazolo[1,5-a]pyridin-5-yl)-2,3-dihydro-1H-inden-4-yl)carbamoyl)-1H-pyrazole-3-sulfonamide] | ≤ 0.03 |
| Cc1cc2c(c(NC(=O)NS(=O)(=O)c3cc(CN(C)C)n(C4CC4)n3)c1-c1ccn3nccc3c1)CCC2 [Example 77, 1-cyclopropyl-5-((dimethylamino)methyl)-N-((6-methyl-5-(pyrazolo[1,5-a]pyridin-5-yl)-2,3-dihydro-1H-inden-4-yl)carbamoyl)-1H-pyrazole-3-sulfonamide] | 0.03 to 0.3 |
| Cc1cc2c(c(NC(=O)NS(=O)(=O)c3ccn(C4CC4)n3)c1-c1ccn3nncc3c1)CCC2 [Example 78, N-((5-([1,2,3]triazolo[1,5-a]pyridin-5-yl)-6-methyl-2,3-dihydro-1H-inden-4-yl)carbamoyl)-1-cyclopropyl-1H-pyrazole-3-sulfonamide] | ≤ 0.03 |
| Cc1cc2c(c(NC(=O)NS(=O)(=O)c3ccn(C[C@@H](C)O)n3)c1-c1ccn3nccc3c1)CCC2 [Example 79, (R)-1-(2-hydroxypropyl)-N-((6-methyl-5-(pyrazolo[1,5-a]pyridin-5-yl)-2,3-dihydro-1H-inden-4-yl)carbamoyl)-1H-pyrazole-3-sulfonamide] | ≤ 0.03 |
| Cc1cc2c(c(NC(=O)NS(=O)(=O)c3ccn(C[C@H](C)O)n3)c1-c1ccn3nccc3c1)CCC2 [Example 80, (S)-1-(2-hydroxypropyl)-N-((6-methyl-5-(pyrazolo[1,5-a]pyridin-5-yl)-2,3-dihydro-1H-inden-4-yl)carbamoyl)-1H-pyrazole-3-sulfonamide] | ≤ 0.03 |

Source: patent US20240400561A1, “NOVEL SUBSTITUTED SULFONYLUREA COMPOUNDS AS INHIBITORS OF INTERLEUKIN-1 ACTIVITY” (Viva Star Biosciences (Suzhou) Co., Ltd., priority 2021, published 2024)
